Results on four molecules are retold here after patent publication US5569658A, “Tricyclic derivatives” (Zeneca Limited, priority 1993, dated 1996).

One test relates to liver hepatocyte. The experiment in a line: in vivo assay: inhibition of TGFα-stimulated liver hepatocyte growth in rats (Test (c)). The conditions noted are these: TGFα 400 μg/kg subcutaneously; for ED50: Rattus norvegicus, Hepatocyte, male rats, usually oral, approximate ED50, read-out: ED50 in Test (c), inhibition of liver hepatocyte proliferation (BrdU uptake). More on the design: species or system rat. As to the method:
(c) An in vivo assay in a group of male rats which determines the ability of a test compound (usually administered orally as a ball-milled suspension in 0.5% polysorbate) to inhibit the stimulation of liver hepatocyte growth caused by the administration of the growth factor TGFα (400 μg/kg subcutaneously, usually dosed twice, 3 and 7 hours respectively after the administration of the test compound).
In a control group of rats, the administration of TGFα causes on average a 5-fold stimulation of liver hepatocyte growth.
Cell-growth in the control and test animals is determined as follows:
On the morning of the day after the dosing of the test compound (or 0.5% polysorbate in the control group), the animals are dosed with bromodeoxyuridine (BrdU; 100 mg/kg intraperitoneally). The animals are killed four hours later and the livers are excised. […] Further tests were carried out using a range of doses of the test compounds to allow the calculation of an approximate ED50 value for the inhibition of liver hepatocyte proliferation as determined by inhibition of the uptake of BrdU.

The test system of test [1] is human mammary carcinoma which expresses epidermal growth factor (EGF) receptor tyrosine kinase. As to conditions: athymic nude mice; Toi et al., 1990; cited from earlier work.
In test [2] the test system is another carcinoma which does not express EGF receptor tyrosine kinase. As to conditions: Toi et al., 1990; cited from earlier work.
The target of another test is T1, receptor tyrosine kinase (Homo sapiens, UniProt P00533).
T1 construct: Receptor tyrosine kinase was obtained in partially purified form from A-431 cells; endogenous in cells; host or cells: A-431 cells (human vulval carcinoma); partially purified, Triton X-100 solubilised membrane fraction
Nature of the test: in vitro assay: inhibition of the enzyme receptor tyrosine kinase (Test (a)). It is filed as biochemical. The conditions noted are these: partially purified enzyme from A-431 cells; EGF; peptide substrate, [γ-32P]ATP; 25° C., 10 minutes. Here is the method: (a) An in vitro assay which determines the ability of a test compound to inhibit the enzyme receptor tyrosine kinase. Receptor tyrosine kinase was obtained in partially purified form from A-431 cells (derived from human vulval carcinoma) by procedures related to those described by Carpenter et al., J. Biol. Chem., 1979, 254, 4884, Cohen et al., J. Biol. Chem., 1982, 257, 1523 and by Braun et al., J. Biol. Chem., 1984, 259, 2051.
A-431 cells were grown to confluence using Dulbecco's modified Eagle's medium (DMEM) containing 5% fetal calf serum (FCS). The obtained cells were homogenised in a hypotonic borate/EDTA buffer at pH 10.1. The homogenate was centrifuged at 400 g for 10 minutes at 0°-4° C. The supernatant was centrifuged at 25,000 g for 30 minutes at 0°-4° C. […]
The test compound/EGF mixture solution (5 μl) was added to the test enzyme solution (10 μl) and the mixture was incubated at 0°-4° C. for 30 minutes. […] Radioactivity present in the filter paper was measured using a liquid scintillation counter (Sequence A). […]
Receptor tyrosine kinase inhibition was calculated as follows: [formula]
The extent of inhibition was then determined at a range of concentrations of test compound to give an IC50 value.

In test [3] the test system is human naso-pharyngeal cancer cell line KB. Nature of the test: in vitro assay: inhibition of growth of the human naso-pharyngeal cancer cell line KB (Test (b)). The test is classed as cell-based. The conditions noted are these: 72 h, EGF (10 ng/ml), 3 days, MTT. Here is the method: (b) An in vitro assay which determines the ability of a test compound to inhibit the growth of the human naso-pharyngeal cancer cell line KB.
KB cells were seeded into wells at a density of 1×10^4 -1.5×10^4 cells per well and grown for 24 hours in DMEM supplemented with 5% FCS (charcoal-stripped). Cell growth was determined after incubation for 3 days by the extent of metabolism of MTT tetrazolium dye to furnish a bluish color. Cell growth was then determined in the presence of EGF (10 ng/ml) or in the presence of EGF (10 ng/ml) and a test compound at a range of concentrations. An IC50 value could then be calculated.

By IC50 is commonly meant the midpoint of a concentration-inhibition curve. A higher IC50 goes with weaker potency in that assay.

T1 sequence (P00533 25-1210): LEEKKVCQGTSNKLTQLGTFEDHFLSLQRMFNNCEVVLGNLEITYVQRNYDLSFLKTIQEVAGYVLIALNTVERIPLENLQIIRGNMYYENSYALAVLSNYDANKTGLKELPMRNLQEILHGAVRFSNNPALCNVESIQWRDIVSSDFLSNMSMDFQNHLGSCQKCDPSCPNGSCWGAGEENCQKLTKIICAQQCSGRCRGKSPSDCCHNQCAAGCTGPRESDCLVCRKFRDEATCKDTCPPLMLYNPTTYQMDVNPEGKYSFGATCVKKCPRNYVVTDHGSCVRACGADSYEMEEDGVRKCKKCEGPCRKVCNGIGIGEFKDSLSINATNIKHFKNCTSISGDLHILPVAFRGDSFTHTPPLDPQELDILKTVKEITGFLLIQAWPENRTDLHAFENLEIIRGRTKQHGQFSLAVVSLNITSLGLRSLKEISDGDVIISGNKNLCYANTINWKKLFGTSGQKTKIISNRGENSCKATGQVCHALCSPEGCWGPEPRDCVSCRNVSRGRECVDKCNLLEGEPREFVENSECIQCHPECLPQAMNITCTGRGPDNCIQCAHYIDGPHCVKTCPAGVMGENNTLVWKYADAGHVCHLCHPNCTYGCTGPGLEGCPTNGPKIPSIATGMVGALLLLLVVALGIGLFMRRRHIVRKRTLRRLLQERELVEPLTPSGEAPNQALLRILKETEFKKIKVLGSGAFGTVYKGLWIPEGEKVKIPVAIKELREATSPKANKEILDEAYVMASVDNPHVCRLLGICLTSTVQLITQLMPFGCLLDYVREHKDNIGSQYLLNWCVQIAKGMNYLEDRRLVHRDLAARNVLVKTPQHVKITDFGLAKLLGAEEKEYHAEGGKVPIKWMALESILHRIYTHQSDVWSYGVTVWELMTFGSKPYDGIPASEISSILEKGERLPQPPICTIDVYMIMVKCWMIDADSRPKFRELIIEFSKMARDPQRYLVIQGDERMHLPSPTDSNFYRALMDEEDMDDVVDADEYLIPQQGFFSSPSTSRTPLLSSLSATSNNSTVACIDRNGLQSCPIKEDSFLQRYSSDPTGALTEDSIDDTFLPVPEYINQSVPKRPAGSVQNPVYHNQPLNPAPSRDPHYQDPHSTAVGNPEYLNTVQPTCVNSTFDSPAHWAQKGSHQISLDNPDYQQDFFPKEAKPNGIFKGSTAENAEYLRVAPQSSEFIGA

Take TGFα: the growth factor TGFα: the “stimulation of liver hepatocyte growth” value in the test on liver hepatocyte (control group of rats, on average) is on record as ~5 -fold.
On to `O=CN/C=C/c1cc(O)ccc1O` [erbstatin], for which the “effect on tumour growth, carcinoma expressing EGF receptor tyrosine kinase” value in test [1] is recorded as “specifically attenuates the growth”. Moreover, the “effect on tumour growth, carcinoma not expressing EGF receptor tyrosine kinase” value in test [2] is reported as “without effect”.
`Cc1cccc(Nc2ncnc3cc4c(cc23)ncn4C)c1` [3-methyl-8-(3'-methylanilino)-3H-imidazo[4,5-g]-quinazoline]: the IC50 was 35 nM at receptor tyrosine kinase and 970 nM in test [3]. Besides, the ED50 in the test with liver hepatocyte was below 5 mg/kg.
For `Cc1cccc(Nc2ncnc3cc4c(cc23)[nH]c(=O)n4C)c1` [3-methyl-8-(3'-methylanilino)-1,2-dihydro-3H-imidazo[4,5-g]quinazolin-2-one] the same measures were 16 nM, 1190 nM and below 12.5 mg/kg.
